Test results as given in PMC6256112, “Cannabinoid Receptor 2 Signalling Bias Elicited by 2,4,6-Trisubstituted 1,3,5-Triazines” (Frontiers in Pharmacology, 2018).
≈ marks a conversion by molar mass, not a printed value. Marks after values point to notes of the source that are not given here.

Columns and labels:
hCB2 [1] = target: T1, hCB2 (Homo sapiens, UniProt P34972); assay: hCB2 internalisation assay (immunocytochemistry of surface receptor), HEK Flp-in hCB2 cells; assay type: cell-based
T1 construct: expressed in transfected cells; host or cells: HEK Flp-in

HEK Flp-in wt cells = assay: CAMYEL cAMP assay in HEK Flp-in wt cells (non-hCB2-mediated effects); assay type: cell-based, human; conditions: HEK Flp-in wt
hCB2 [2] = target: T1, hCB2; assay: Real-time CAMYEL BRET cAMP assay, forskolin-stimulated HEK Flp-in hCB2 cells; assay type: cell-based
Description: Cellular cAMP levels were measured using a real-time BRET biosensor (CAMYEL) as previously described ([Cawston et al., 2013]). In brief, cells were seeded in 10 cm dishes one day prior to transfection. The medium was then replaced and cells transfected with 5 μg of pcDNA3L-His-CAMYEL (ATCC, Manassas, VA, United States) using linear PEI (MW 25 kDa; Polysciences, Warrington, PA, United States) with a DNA:PEI ratio of 1:6. Approximately 24 h after transfection, cells were trypsinised and re-plated in poly-D-lysine treated white 96-well plates (Corning), at a density of 5–6 × 10^4 cells per well. For experiments involving pertussis toxin (PTX; Sigma-Aldrich) pre-treatment, cells were seeded in half the usual volume of medium, and then ∼5 h later, 2× concentrated PTX or vehicle (50% glycerol, […] Tris–HCl pH 7.5, 10 mM glycine, 500 mM NaCl) were prepared in medium and added to the existing plating medium (giving rise to a final PTX concentration of 100 ng mL^-1). Approximately 24 h after plating (or 16–20 h after applying PTX/vehicle in experiments involving PTX treatment), cells were washed once with Hank’s Balanced Salt Solution (HBSS, Thermo Fisher Scientific, catalogue #14025-134), and then equilibrated for 30 min in HBSS supplemented with 1 mg mL^-1 BSA. Coelenterazine h (final concentration 5 μM; NanoLight Technologies, Pinetop, AZ, United States) was added to each well and incubated for 5 min. Forskolin was added (final concentration 5 μM) and incubated for 6 min (allowing enough time for the induced cAMP increase to plateau), prior to vehicle/drug addition. All drugs and reagents were prepared in HBSS supplemented with 1 mg mL^-1 BSA. SR 144528 was a generous gift from Roche (Basel, Switzerland).
Assays were carried out in technical duplicate. Emissions were detected at 460 nm (Rluc) and 535 nm (YFP) with either a LUMIstar® Omega luminometer (BMG Labtech, Ortenberg, Germany) or CLARIOstar® (BMG Labtech). BRET ratios (535 nm emissions/460 nm emissions, where an increase in ratio corresponds to a decrease in cAMP) were normalised to pre-forskolin reads (i.e., with coelenterazine h present) to remove any variability present prior to addition of forskolin and drug/vehicle. A Lowess curve (GraphPad Prism) was fitted to individual technical replicates within an assay so that cAMP signalling data could be extrapolated from any time point as opposed to only those that were empirically measured (typically every 30–60 s). Data were normalised to matched vehicle (0%) and forskolin (100%) treatments, allowing compilation of data from independent experiments.

hCB2 [3] = target: T1, hCB2; assay: Radioligand competition binding with [3H]-CP 55,940 on hCB2-expressing HEK membranes
physchem = assay type: physicochemical; conditions: organic solvent or mixture
Excerpt: The piperazine-containing 1,3,5-triazines 1 and 7, assembled following literature protocols (compound “26a” in [Yrjölä et al., 2013]; compound “8” in [Yrjölä et al., 2015], respectively), were alkylated with various alkyl bromide linkers containing a Boc-protected amine at the terminus to give 3, 4, 8, 9 and 10 (Schemes 1, 2). These were then Boc-deprotected using acidic conditions to give primary amines 5, 6, 11, 12, and 13. One example of an acetylated linker (14) was also synthesised. Thirteen compounds were biologically tested (Table 1); five compounds had been reported previously (1, 2, 7, 15, 16) ([Yrjölä et al., 2013], [2015]), and the remainder were novel (5, 6, 9–14). […] 7 was therefore assayed in a higher final DMSO content (1%) than the other compounds (0.1%). Both vehicle concentrations were controlled for in all assays (negative/vehicle and positive controls).

hCB1 = target: T2, hCB1 (Homo sapiens, UniProt P21554); assay: Radioligand competition binding screen with [3H]-CP 55,940 on hCB1-expressing HEK membranes
T2 construct: expressed in transfected cells; host or cells: HEK (membranes)

CB2 = tested on: CB2; design: method as in Yrjölä et al., 2015; conditions: ref Yrjölä et al., 2015; cited from earlier work
hCB2 [4] = target: T1, hCB2; assay: Comparison of efficacy/potency and operational-model bias analysis between hCB2 pathways, reference CP 55,940; assay type: cell-based
hCB2 [5] = target: T1, hCB2; assay: pERK AlphaLISA assay, HEK Flp-in hCB2 cells; assay type: cell-based
[6] = operational model transduction ratio
[7] = 10^ΔΔlogR, relative to CP 55,940
[8] = relative to reference ligand CP 55,940

T1 sequence (P34972 whole entry): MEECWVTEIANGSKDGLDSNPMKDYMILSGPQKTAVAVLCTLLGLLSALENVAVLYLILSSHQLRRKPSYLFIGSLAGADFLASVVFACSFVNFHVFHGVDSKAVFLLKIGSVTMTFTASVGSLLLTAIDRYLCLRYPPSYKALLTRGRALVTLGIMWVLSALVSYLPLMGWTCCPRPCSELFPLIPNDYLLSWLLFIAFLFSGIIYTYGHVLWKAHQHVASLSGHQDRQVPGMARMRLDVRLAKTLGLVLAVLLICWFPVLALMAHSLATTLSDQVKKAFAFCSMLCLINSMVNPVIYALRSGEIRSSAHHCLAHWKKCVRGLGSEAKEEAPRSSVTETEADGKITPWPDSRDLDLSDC
T2 sequence (P21554 whole entry): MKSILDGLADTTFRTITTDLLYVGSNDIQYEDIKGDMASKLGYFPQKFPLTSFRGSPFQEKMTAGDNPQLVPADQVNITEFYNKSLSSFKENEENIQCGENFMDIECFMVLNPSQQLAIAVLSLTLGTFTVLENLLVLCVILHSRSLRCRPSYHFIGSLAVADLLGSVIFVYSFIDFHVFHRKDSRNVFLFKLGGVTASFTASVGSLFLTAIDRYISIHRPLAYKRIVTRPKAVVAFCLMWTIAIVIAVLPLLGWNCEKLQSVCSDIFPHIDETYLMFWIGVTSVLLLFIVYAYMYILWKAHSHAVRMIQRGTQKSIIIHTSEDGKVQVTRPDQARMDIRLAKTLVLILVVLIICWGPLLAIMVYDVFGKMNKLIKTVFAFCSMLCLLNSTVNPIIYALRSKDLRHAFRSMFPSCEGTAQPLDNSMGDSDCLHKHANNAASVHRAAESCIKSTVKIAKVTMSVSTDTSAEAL

In the case of `CCOc1nc(NC23CC4CC(CC(C4)C2)C3)nc(N2CCNCC2)n1` [Compound 7, N-(ad-amantan-1-yl)-4-ethoxy-6-(piperazin-1-yl)-1,3,5-triazi n-2-amine], the EC50 (hCB2 [1]; 1 h stimulation) is reported as 45.7 nM, the “logR [log(τ/KA)] (±SEM) Internalisation” value (hCB2 [1]; [6]) is reported as 7.42 (0.26) and the Emax at 10 µM (hCB2 [1]; read-out: Internalisation (1 h) Emax (±SEM), 1 h stimulation, change in surface hCB2 relative to vehicle-treated (100%), for 13 efficacy at 10 μM) is reported as -61.4%. For the same compound, the “Non-hCB2-mediated effects on cAMP (in words)” value (HEK Flp-in wt cells) was “most pronounced effects”, the EC50 (hCB2 [2]; 5 min post-drug, 5 μM forskolin, 10 and 14 approximate (non-hCB2-mediated effects), read-out: cAMP (5 min) pEC50 (±SEM) (converted)) was 85.1 nM and the “cAMP (5 min) Emax (±SEM)” value (hCB2 [2]; 5 min post-drug, 5 μM forskolin, change relative to forskolin alone (100%), vehicle 0%, 10 and 14 approximate) was “–43.0 (3.0) %”. The “logR [log(τ/KA)] (±SEM) cAMP” value (hCB2 [2]; [6]) was 7.29 (0.26), the inhibition at 10 µM (hCB2 [3]; 1 h, 10 μM compound, displacement of 0.5 nM [3H]-CP 55,940, read-out: CB2 binding extent at 10 μM (%) (±SEM)) was 85.6% and the “Reduction in hCB2 affinity compared to 15” value (hCB2 [3]; compared to methylpiperazinyl-15) was ~100 fold. For the same compound, the Ki (hCB2 [3]; heterologous competition vs [3H]-CP 55,940, read-out: CB2 pKi (±SEM) (converted)) was 417 nM, the solubility (physchem) was 1000 µM (≈ 358 µg/mL) and the “CB1 binding extent at 10 μM (%) (±SEM)” value (hCB1; 10 μM compound, displacement of 0.75 nM [3H]-CP 55,940) was 13.7 (4.1) %. For the same compound, the “CB2 selectivity over CB1 (in words)” value (hCB1; from CB1 binding at 10 μM versus CB2 affinity) was “likely also CB2-selective”, the “GTPγS activity, % of maximum measured activity” value (CB2) was ~60% and the “Internalisation – pERK Bias factor” value (hCB2 [4]; [7]) was 15.4. For the same compound, the “cAMP – internalisation Bias factor” value (hCB2 [4]; [7]) was 1.3, the “cAMP – pERK Bias factor” value (hCB2 [4]; [7]) was 20.3 and the “Between-pathway signalling bias (in words)” value (hCB2 [4]; relative to CP 55,940) was “away from activation of pERK”. For the same compound, the “Internalisation – pERK ΔΔlogR (±SEM)” value (hCB2 [4]; [8]) was 1.19 (0.16)***, the “cAMP – internalisation ΔΔlogR (±SEM)” value (hCB2 [4]; [8]) was 0.12 (0.31) and the “cAMP – pERK ΔΔlogR (±SEM)” value (hCB2 [4]; [8]) was 1.31 (0.27)***. For the same compound, the “Behaviour in pERK pathway (in words)” value (hCB2 [5]; 4 min) was “weak partial agonists”, the EC50 (hCB2 [5]; 4 min stimulation, 14 approximate (low potency), read-out: pERK (4 min) pEC50 (±SEM) (converted)) was 1820 nM and the “logR [log(τ/KA)] (±SEM) pERK” value (hCB2 [5]; [6]) was 5.51 (0.05). For the same compound, the “Time of maximal pERK response” value (hCB2 [5]; time course experiment) was 4 min.
